Source: ChEMBL document CHEMBL1201862, “PubChem BioAssay data set” (2004)
Activity calls are given as the source filed them.

How the values were obtained:
[1] = biological target: Tyrosine-protein kinase JAK2 (Homo sapiens, UniProt O60674); type: functional;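 note: JAK2 tested as one member of a kinase panel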
[2] = biological target: Dual specificity protein kinase CLK2 (Homo sapiens, UniProt P49760); type: functional
[3] = biological target: T1, Serine/threonine-protein kinase Nek2 (Homo sapiens, UniProt P51955); type: functional
T1 sequence (P51955 whole entry): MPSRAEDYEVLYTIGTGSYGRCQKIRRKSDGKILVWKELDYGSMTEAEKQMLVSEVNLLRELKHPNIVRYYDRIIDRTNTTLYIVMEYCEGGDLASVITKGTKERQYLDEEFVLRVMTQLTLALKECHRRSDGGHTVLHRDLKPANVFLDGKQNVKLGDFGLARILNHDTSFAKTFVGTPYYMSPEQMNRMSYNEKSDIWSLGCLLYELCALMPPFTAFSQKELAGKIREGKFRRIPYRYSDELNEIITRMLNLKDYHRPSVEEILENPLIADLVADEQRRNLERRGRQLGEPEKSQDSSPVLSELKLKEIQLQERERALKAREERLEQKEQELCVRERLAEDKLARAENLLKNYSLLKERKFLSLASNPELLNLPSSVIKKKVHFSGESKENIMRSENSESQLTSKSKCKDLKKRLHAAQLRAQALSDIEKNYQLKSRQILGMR

[4] = biological target: Mitogen-activated protein kinase 9 (Homo sapiens, UniProt P45984); type: functional;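 note: value from a kinome panel profiling assay, MAPK9 panel entry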
[5] = biological target: Rho-associated protein kinase 1 (Homo sapiens, UniProt Q13464); type: functional;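 note: measured within a broad kinome-wide panel profiling many kinases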
[6] = biological target: Tyrosine-protein kinase ABL1 (Homo sapiens, UniProt P00519); type: functional
[7] = biological target: Vascular endothelial growth factor receptor 1 (Homo sapiens, UniProt P17948); type: functional;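 note: measured within a kinome-wide profiling panel, FLT1 as the panel member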
[8] = biological target: Fibroblast growth factor receptor 1 (Homo sapiens, UniProt P11362); type: functional
Aurora kinase A = biological target: T2, Aurora kinase A (Homo sapiens, UniProt O14965); type: functional;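 note: value from the Navigating the Kinome kinase panel profiling, panel entry STK6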
T2 sequence (O14965 whole entry): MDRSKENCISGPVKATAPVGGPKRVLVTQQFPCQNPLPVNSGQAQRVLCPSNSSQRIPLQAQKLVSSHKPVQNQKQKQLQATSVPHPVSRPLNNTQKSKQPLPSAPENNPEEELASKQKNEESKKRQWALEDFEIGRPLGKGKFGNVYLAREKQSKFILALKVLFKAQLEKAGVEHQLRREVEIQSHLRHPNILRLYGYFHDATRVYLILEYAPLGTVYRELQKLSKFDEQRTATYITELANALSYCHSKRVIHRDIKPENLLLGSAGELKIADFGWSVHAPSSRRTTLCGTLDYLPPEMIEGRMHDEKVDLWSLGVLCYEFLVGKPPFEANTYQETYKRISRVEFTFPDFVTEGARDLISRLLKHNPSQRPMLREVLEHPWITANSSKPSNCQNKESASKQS

[9] = biological target: Mitogen-activated protein kinase kinase kinase kinase 2 (Homo sapiens, UniProt Q12851); type: functional;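 note: measured as one member of a kinome-wide kinase panel, with MAP4K2 as the panel entry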
[10] = biological target: Calcium/calmodulin-dependent protein kinase type II subunit alpha (Homo sapiens, UniProt Q9UQM7); assay: Navigating the Kinome. Panel member name: CAMK2A; type: functional
[11] = biological target: Macrophage colony-stimulating factor 1 receptor (Homo sapiens, UniProt P07333); type: functional;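 note: value comes from the Navigating the Kinome screening panel, CSF1R member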
[12] = biological target: Cyclin-dependent kinase 5 (Homo sapiens, UniProt Q00535); type: functional;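 note: CDK5 measured as one member of a kinase profiling panel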
[13] = biological target: Dual specificity mitogen-activated protein kinase kinase 2 (Homo sapiens, UniProt P36507); assay: Navigating the Kinome. Panel member name: MAP2K2; type: functional
[14] = biological target: Tyrosine-protein kinase Fyn (Homo sapiens, UniProt P06241); type: functional
[15] = biological target: Dual specificity protein kinase CLK4 (Homo sapiens, UniProt Q9HAZ1); type: functional
[16] = biological target: Tyrosine-protein kinase Lck (Homo sapiens, UniProt P06239); type: functional;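 note: lck was assayed as one member of a kinase panel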
[17] = biological target: Platelet-derived growth factor receptor alpha (Homo sapiens, UniProt P16234); assay: Navigating the Kinome. Panel member name: PDGFRA; type: functional
[18] = biological target: Tyrosine-protein kinase BTK (Homo sapiens, UniProt Q06187); type: functional
[19] = biological target: Serine/threonine-protein kinase pim-1 (Homo sapiens, UniProt P11309); type: functional
[20] = biological target: Insulin-like growth factor 1 receptor (Homo sapiens, UniProt P08069); assay: Navigating the Kinome. Panel member name: IGF1R; type: functional
[21] = biological target: Glycogen synthase kinase-3 beta (Homo sapiens, UniProt P49841); type: functional;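 note: value comes from a broad kinome profiling panel, with GSK3B as the panel member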
[22] = biological target: G protein-coupled receptor kinase 5 (Homo sapiens, UniProt P34947); assay: Navigating the Kinome. Panel member name: GPRK5; type: functional
[23] = biological target: Serine/threonine-protein kinase D3 (Homo sapiens, UniProt O94806); type: functional;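 note: determined within a kinase panel screen, with PRKCN as the panel member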
[24] = biological target: BDNF/NT-3 growth factors receptor (Homo sapiens, UniProt Q16620); type: functional;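 note: NTRK2 measured as one member of a broad kinome-wide kinase profiling panel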
[25] = biological target: Mitogen-activated protein kinase 8 (Homo sapiens, UniProt P45983); type: functional;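 note: value comes from one member of a kinome-wide kinase profiling panel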
Activated CDC42 kinase 1 = Activated CDC42 kinase 1 (Homo sapiens, UniProt Q07912); assay: Navigating the Kinome. Panel member name: ACK1; type: functional
[26] = biological target: Hepatocyte growth factor receptor (Homo sapiens, UniProt P08581); type: functional;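 note: kinase panel profiling across the kinome, with MET as the panel member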
[27] = C. albicans growth with fluconazole, confirmation, fluorescence, retest (AID 2467); type: functional, cell-based
[28] = biological target: Heat shock protein HSP 90-alpha (Homo sapiens, UniProt P07900); type: functional, organism-based
[29] = biological target: Photoreceptor-specific nuclear receptor (Homo sapiens, UniProt Q9Y5X4); type: functional;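 note: potency for compounds that break the NR2E3 corepressor complex and count as activators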

Chain of Dual specificity protein kinase CLK4 (Q9HAZ1 whole entry): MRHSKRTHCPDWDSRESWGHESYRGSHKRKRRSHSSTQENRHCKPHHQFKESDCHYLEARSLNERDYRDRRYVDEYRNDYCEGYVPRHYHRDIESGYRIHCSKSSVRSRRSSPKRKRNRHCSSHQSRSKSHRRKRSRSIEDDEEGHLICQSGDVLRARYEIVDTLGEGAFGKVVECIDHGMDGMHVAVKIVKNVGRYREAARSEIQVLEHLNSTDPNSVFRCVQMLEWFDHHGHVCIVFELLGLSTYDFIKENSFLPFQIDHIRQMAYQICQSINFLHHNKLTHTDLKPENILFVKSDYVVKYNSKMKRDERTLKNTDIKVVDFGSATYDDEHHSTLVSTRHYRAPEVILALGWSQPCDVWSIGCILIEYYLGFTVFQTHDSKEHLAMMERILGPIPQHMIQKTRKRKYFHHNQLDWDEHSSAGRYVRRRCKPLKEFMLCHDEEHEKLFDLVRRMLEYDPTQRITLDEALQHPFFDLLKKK
Chain of Platelet-derived growth factor receptor alpha (P16234 whole entry): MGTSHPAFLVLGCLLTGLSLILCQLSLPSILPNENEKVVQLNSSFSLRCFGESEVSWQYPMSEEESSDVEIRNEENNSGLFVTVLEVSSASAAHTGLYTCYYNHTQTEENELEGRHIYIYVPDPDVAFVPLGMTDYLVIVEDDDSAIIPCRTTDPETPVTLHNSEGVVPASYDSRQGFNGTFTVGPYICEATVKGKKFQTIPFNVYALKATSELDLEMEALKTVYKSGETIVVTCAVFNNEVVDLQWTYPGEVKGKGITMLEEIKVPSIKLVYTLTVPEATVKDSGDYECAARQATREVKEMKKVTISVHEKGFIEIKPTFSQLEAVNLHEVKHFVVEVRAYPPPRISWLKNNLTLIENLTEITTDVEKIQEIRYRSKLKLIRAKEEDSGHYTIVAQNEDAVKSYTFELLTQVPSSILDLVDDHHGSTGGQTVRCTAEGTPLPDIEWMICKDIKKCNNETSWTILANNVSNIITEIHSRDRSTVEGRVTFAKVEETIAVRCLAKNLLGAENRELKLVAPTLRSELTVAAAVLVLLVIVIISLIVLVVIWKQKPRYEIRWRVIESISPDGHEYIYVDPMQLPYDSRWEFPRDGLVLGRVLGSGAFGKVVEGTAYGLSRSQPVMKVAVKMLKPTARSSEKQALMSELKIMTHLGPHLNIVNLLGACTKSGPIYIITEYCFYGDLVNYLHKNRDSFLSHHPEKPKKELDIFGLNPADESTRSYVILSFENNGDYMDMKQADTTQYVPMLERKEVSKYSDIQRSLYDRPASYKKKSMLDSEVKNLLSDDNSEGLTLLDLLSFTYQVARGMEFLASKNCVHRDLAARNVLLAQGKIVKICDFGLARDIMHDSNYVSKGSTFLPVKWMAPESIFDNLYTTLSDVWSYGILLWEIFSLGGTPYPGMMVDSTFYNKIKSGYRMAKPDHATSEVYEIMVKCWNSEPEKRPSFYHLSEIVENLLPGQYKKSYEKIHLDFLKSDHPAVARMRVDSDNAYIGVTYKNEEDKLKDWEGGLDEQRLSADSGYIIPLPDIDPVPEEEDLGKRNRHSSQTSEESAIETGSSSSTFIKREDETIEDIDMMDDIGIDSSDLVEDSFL
Chain of Dual specificity protein kinase CLK2 (P49760 whole entry): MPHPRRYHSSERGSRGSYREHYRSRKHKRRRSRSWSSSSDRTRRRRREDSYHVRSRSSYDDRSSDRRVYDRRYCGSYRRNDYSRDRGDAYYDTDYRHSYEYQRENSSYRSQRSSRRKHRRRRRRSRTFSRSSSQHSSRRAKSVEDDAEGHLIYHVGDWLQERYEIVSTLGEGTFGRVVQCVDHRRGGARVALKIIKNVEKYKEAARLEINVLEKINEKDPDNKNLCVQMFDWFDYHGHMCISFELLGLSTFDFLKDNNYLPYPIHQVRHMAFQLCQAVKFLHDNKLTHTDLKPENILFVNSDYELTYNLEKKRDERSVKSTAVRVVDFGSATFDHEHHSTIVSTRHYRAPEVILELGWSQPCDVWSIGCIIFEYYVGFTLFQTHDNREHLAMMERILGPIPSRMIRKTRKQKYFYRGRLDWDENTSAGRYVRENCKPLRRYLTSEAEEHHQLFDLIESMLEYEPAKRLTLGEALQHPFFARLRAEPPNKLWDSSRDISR
Chain of Glycogen synthase kinase-3 beta (P49841 whole entry): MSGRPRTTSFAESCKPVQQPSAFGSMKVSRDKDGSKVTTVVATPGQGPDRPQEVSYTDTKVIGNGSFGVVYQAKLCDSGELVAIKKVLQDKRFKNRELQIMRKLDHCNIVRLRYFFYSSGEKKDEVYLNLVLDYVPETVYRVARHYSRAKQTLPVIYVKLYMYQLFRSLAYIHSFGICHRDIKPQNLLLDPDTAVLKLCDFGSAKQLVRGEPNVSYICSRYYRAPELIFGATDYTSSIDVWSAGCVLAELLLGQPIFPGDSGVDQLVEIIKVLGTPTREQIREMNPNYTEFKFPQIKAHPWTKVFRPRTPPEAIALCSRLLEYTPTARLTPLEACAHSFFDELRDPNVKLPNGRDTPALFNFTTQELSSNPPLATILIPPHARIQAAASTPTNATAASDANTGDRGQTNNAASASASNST
Chain of Mitogen-activated protein kinase kinase kinase kinase 2 (Q12851 whole entry): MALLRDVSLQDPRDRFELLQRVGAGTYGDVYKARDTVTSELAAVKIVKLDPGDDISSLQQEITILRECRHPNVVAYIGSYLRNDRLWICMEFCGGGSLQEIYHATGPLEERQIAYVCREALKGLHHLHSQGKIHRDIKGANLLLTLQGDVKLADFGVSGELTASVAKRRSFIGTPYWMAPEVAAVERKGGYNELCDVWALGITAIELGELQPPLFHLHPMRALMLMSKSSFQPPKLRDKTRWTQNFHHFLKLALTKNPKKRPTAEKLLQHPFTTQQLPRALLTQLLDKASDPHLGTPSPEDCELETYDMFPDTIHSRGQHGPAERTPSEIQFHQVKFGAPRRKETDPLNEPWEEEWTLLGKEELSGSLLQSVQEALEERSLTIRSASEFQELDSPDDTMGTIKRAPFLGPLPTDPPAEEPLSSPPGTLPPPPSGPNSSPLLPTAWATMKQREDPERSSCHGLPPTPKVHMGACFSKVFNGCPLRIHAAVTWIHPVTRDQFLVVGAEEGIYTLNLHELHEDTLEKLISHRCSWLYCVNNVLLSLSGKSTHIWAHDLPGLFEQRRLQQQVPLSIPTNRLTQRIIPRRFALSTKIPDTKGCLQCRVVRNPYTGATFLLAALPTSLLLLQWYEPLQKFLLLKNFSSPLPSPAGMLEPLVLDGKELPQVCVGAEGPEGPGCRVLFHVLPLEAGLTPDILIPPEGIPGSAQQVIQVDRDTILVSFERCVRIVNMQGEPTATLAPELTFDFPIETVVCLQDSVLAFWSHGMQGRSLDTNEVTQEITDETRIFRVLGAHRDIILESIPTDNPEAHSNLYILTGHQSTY
Chain of Insulin-like growth factor 1 receptor (P08069 31-736 limits assumed): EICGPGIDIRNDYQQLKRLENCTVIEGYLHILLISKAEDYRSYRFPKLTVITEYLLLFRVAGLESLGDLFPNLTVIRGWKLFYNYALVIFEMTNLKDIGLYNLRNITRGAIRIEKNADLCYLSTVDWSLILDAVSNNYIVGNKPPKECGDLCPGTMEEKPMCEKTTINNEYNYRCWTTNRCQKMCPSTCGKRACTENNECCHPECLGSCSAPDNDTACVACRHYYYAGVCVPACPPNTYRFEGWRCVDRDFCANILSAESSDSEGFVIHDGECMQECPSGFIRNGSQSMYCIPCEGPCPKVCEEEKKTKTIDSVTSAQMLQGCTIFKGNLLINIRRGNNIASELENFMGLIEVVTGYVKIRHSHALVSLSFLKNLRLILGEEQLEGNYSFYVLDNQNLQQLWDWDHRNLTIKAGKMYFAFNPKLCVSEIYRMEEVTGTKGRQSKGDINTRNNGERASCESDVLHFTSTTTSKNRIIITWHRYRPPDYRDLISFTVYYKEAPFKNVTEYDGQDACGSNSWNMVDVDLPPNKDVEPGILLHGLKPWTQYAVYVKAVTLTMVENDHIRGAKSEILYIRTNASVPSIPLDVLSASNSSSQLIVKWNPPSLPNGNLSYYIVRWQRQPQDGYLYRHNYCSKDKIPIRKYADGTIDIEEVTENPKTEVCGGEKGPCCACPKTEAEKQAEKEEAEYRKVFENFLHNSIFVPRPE
Chain of Insulin-like growth factor 1 receptor (P08069 741-1367 limits assumed): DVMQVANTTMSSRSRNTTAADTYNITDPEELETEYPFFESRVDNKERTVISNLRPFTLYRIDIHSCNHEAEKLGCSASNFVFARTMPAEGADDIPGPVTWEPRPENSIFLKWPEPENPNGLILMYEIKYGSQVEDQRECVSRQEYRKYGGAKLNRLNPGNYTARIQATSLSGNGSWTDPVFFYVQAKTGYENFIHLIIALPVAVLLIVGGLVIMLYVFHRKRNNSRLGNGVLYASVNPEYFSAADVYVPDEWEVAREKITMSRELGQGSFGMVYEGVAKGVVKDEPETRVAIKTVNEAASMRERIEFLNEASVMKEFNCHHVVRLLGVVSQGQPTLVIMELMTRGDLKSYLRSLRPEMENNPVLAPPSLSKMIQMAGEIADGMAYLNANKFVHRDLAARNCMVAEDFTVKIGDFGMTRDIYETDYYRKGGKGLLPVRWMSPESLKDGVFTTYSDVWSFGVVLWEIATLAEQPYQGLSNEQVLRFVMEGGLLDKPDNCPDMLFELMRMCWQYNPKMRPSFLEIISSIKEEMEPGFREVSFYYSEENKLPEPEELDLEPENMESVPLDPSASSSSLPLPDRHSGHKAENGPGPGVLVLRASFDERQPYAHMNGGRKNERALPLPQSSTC
Chain of Serine/threonine-protein kinase pim-1 (P11309 whole entry): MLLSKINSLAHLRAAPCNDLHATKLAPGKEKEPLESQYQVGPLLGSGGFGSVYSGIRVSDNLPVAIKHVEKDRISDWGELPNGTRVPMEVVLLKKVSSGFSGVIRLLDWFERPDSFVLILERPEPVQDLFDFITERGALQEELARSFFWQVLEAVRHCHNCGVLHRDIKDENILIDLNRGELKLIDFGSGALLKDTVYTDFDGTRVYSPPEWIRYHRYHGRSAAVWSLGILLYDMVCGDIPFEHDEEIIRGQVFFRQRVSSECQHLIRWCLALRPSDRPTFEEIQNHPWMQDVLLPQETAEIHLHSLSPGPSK

| Compound | Ki [1] | Ki [2] | Ki [3] | Ki [4] | Ki [5] | Ki [6] | Ki [7] | Ki [8] | Ki (Aurora kinase A) | Ki [9] | Ki [10] | Ki [11] | Ki [12] | Ki [13] | Ki [14] | Ki [15] | Ki [16] | Ki [17] | Ki [18] | Ki [19] | other results |
| --- | --- | --- | --- | --- | --- | --- | --- | --- | --- | --- | --- | --- | --- | --- | --- | --- | --- | --- | --- | --- | --- |
| CCCC(=O)NC(c1cccs1)c1cc(Cl)c2cccnc2c1O (stereo unspecified) | – | – | – | – | – | – | – | – | – | – | – | – | – | – | – | – | – | – | – | – | EC50 [27]: 707 nM (active); AC50 [28]: 1470 nM (active) |
| Cc1ccc(C(=O)OCn2ncc(Cl)c(Cl)c2=O)cc1 | – | – | – | – | – | – | – | – | – | – | – | – | – | – | – | – | – | – | – | – | EC50 [27]: > 38000 nM (not active); AC50 [28]: 4280 nM (active) |
| O=C(O)CC(C(=O)O)N1C(=O)/C(=C/C=C/c2ccco2)SC1=S (stereo unspecified) | – | – | – | – | – | – | – | – | – | – | – | – | – | – | – | – | – | – | – | – | IC50 [29]: > 39800 nM (not active) |

Second part, led by results:

| Ki [1] | Ki [2] | Ki [3] | Ki [4] | Ki [5] | Ki [6] | Ki [7] | Ki [8] | Ki (Aurora kinase A) | Ki [9] | Ki [10] | Ki [11] | Ki [12] | Ki [13] | Ki [14] | Ki [15] | Ki [16] | Ki [17] | Ki [18] | Ki [19] | Compound | other results |
| --- | --- | --- | --- | --- | --- | --- | --- | --- | --- | --- | --- | --- | --- | --- | --- | --- | --- | --- | --- | --- | --- |
| 794 nM (active) | > 3980 nM (inactive) | > 3160 nM (inactive) | > 3980 nM (inactive) | 1000 nM (active) | > 2510 nM (inactive) | > 3980 nM (inactive) | 1000 nM (active) | 1580 nM (active) | > 2510 nM (inactive) | 1580 nM (active) | 398 nM (active) | > 3160 nM (inactive) | 1580 nM (active) | 3160 nM (active) | > 2510 nM (inactive) | > 6310 nM (inactive) | > 2510 nM (inactive) | > 6310 nM (inactive) | 1000 nM (active) | Cc1ccc(-c2cc(-c3cc(Br)ccc3O)[nH]c(=O)c2C#N)s1 | Ki [20]: 794 nM (active); Ki [21]: 316 nM (active); Ki [22]: 1000 nM (active); Ki [23]: > 3980 nM (inactive); Ki [24]: 3160 nM (active); Ki [25]: 794 nM (active); Ki (Activated CDC42 kinase 1): 2510 nM (active); Ki [26]: > 2510 nM (inactive) |
| > 2510 nM (inactive) | > 3980 nM (inactive) | 1580 nM (active) | > 3980 nM (inactive) | > 3980 nM (inactive) | 1260 nM (active) | > 3980 nM (inactive) | 794 nM (active) | 501 nM (active) | 1260 nM (active) | > 3980 nM (inactive) | > 2510 nM (inactive) | > 3160 nM (inactive) | 398 nM (active) | > 6310 nM (inactive) | 1000 nM (active) | > 6310 nM (inactive) | > 2510 nM (inactive) | 5010 nM (active) | 316 nM (active) | O=C(Nc1cccc(C2Nc3ccc4ccccc4c3C3C=CCC32)c1)c1ccc(F)cc1 (stereo unspecified) | Ki [20]: > 2510 nM (inactive); Ki [21]: 398 nM (active); Ki [22]: 1260 nM (active); Ki [23]: > 3980 nM (inactive); Ki [24]: > 3980 nM (inactive); Ki [25]: 3160 nM (active); Ki (Activated CDC42 kinase 1): > 3980 nM (inactive); Ki [26]: 316 nM (active) |
